Data set [1] relates to HeLa MKYP cells. In words: Toxicity / cell death measured by DAPI staining (take-up). It counts as cell-based. Particulars: for Toxicity (% positive for DAPI takeup @ 50 μM): Table 3; for Max cell death at 25 uM compound, 1 uM FO / Cell death at 25 μM (no FO): Table 3 Supplement B. The method, then: H2O2 treatment was performed as a control for cell death as measured by DAPI staining.
Briefly, HeLa MKYP cells were plated at 10,000 cells/well in 96 well plates along with compounds at various concentrations. Following 16 hrs of incubation, cells were treated with 1 uM FCCP/oligomycin for 6 hours, then analyzed via FACS for the presence of mitochondria in lysosomes (as determined by an emissions spectrum shift from the pH-sensitive mtKeima tag).

Data set [2] can be described thus: Visual inspection of crystallization. It counts as physicochemical. On the set-up: key: 1: yes crystals; 0: no crystals. Particulars: Tables 5A-5D.
Experimental: (§1) Briefly, the Hela MKYP (Mito-Keima/YFP-Parkin) cells were seeded at 10K cells/well. EP/MTK compounds were added at seeding (cells were still in suspension). The cells were incubated with the EP/MTK compounds for 16 hours, then 1 μM FCCP/oligomycin was added for 6 hours. Prior to harvesting, cells were scored by eye under 20× magnification for the presence or absence of crystalline or aggregated compound, or round cells.
For data set [3], the system named is Hela MKYP (Mito-Keima/YFP-Parkin) cells. Particulars: human, 22 h.
Experimental: as §1
The test system of data set [4] is HeLa MKYP cells. In words: Human mitophagy assay (HeLa MKYP, mtKeima FACS, FCCP/oligomycin). In kind it is cell-based. The method, then:
Briefly, HeLa MKYP cells were plated at 10,000 cells/well in 96 well plates along with compounds at various concentrations. Following 16 hrs of incubation, cells were treated with 1 uM FCCP/oligomycin for 6 hours, then analyzed via FACS for the presence of mitochondria in lysosomes (as determined by an emissions spectrum shift from the pH-sensitive mtKeima tag). Examples are shown in FIG. 1 through FIG. 13 below.

Another data set relates to mitotoxicity. In words: Mitotox safety margin (therapeutic window). It counts as cell-based. Particulars: for Mitotox safety margin (Therapeutic window): class of the Ratio; for Ratio**: highest concentration with no observable mitotoxicity (μM) divided by the EC50 (μM) of the compound.
A further data set can be described thus: Solubility in 1× PBS. It counts as physicochemical.
[5] abbreviates: Homo sapiens, HeLa, Table 3 Supplement B, read-out: Mitophagy EC50 (HeLa mKeima assay).

Here are results for 5 compounds from US20220162215A1, “COMPOSITIONS AND METHODS OF USING THE SAME FOR TREATMENT OF NEURODEGENERATIVE AND MITOCHONDRIAL DISEASE” (MITOKININ, INC., priority 2019, published 2022).

Values after ≈ are worked out from the molar mass of the structure shown. Where two headings read alike, the source gives them in different places.

Take `c1coc(CNc2ncnc3[nH]cnc23)c1` [kinetin, reference compound]: the “Toxicity (% positive for DAPI take-up @ 50 μM)” value with HeLa MKYP cells [1] (human, 50 μM) was 4.9%. Further, the “Visual inspection of crystallization” value in data set [2] (1.6 μM), in data set [2] (3.1 μM), in data set [2] (6.3 μM), in data set [2] (12.5 μM), in data set [2] (25.0 μM) and in data set [2] (50.0 μM) was 0 each time. Moreover, the “Inspection of round cells” value in data set [3] (1.6 μM), in data set [3] (3.1 μM), in data set [3] (6.3 μM), in data set [3] (12.5 μM), in data set [3] (25 μM) and in data set [3] (50 μM) was 0 throughout.
Regarding `OC[C@@H]1CCc2ccccc2[C@H]1Nc1ncnc2[nH]c(C(F)(F)F)cc12` [Compound 94], the EC50 with HeLa MKYP cells [4] (Homo sapiens, HeLa, Table 3, read-out: Potency at 1 μM F/O toxin* (EC50 of mitophagy activation)) amounted to 1.1 µM. Also, the EC50 with HeLa MKYP cells [4] (setting [5]) amounted to 1.15 µM. The “Toxicity (% positive for DAPI takeup @ 50 μM)” value in the data set with HeLa MKYP cells [1] (50 μM) is 59.5%. Further, in the data set with HeLa MKYP cells [1], the “Max cell death at 25 uM compound, 1 uM FO” value (shortened to “Max cell death”) is 59.535% and the “Cell death at 25 μM (no FO)” value was found to be 27%. In addition, in the data set on mitotoxicity, the “Mitotox safety margin (Therapeutic window)” value (from here on “Mitotox safety margin”) was “+ (ratio <10)” and the “Ratio**” value came to 7.25. Further, the solubility (as a rule, the dissolved amount per volume that the medium holds) in “Solubility in 1× PBS” is 12.9 µM (≈ 4.67 µg/mL).
Turning to `c1ccc(CNc2ncnc3nc[nH]c23)cc1` [Compound 6BAP, 6-benzylaminopurine, reference compound], the “Visual inspection of crystallization” value in data set [2] (1.6 μM), in data set [2] (3.1 μM), in data set [2] (6.3 μM), in data set [2] (12.5 μM), in data set [2] (25.0 μM) and in data set [2] (50.0 μM) was 0 each time. Besides, the “Inspection of round cells” value in data set [3] (1.6 μM), in data set [3] (3.1 μM), in data set [3] (6.3 μM), in data set [3] (12.5 μM), in data set [3] (25 μM) and in data set [3] (50 μM) was 0 in each case.
As for `O[C@H]1Cc2ccccc2[C@@H]1Nc1ncnc2[nH]c(C(F)(F)F)cc12` [Compound 90], the EC50 in the data set with HeLa MKYP cells [4] (setting [5]) came out at 18.5 µM. Also, the “Toxicity (% positive for DAPI takeup @ 50 μM)” value in the data set with HeLa MKYP cells [1] (50 μM) was determined as 14.4%. Also, in the data set on HeLa MKYP cells [1], the “Max cell death” value is given as 14.4% and the “Cell death at 25 μM (no FO)” value turned out to be 2.51%. Also, in the data set with mitotoxicity, the “Mitotox safety margin” value is given as “+ (ratio <10)” and the “Ratio**” value was determined as 1.35. In “Solubility in 1× PBS”, the solubility came to 20.1 µM (≈ 6.72 µg/mL).
Regarding `C[C@H]1CCc2ccccc2[C@@H]1Nc1ncnc2[nH]c(C(F)(F)F)cc12` [Compound 102], in the data set on HeLa MKYP cells [4] (Table 3, read-out: Potency at 1 μM F/O toxin* (EC50 of mitophagy activation)), the EC50 was 0.6 µM. Further, in the data set on HeLa MKYP cells [4] (Table 3 Supplement B, listed as EP-0037882, read-out: Mitophagy EC50 (HeLa mKeima assay)), the EC50 stood at 0.59 µM. In addition, the “Toxicity (% positive for DAPI takeup @ 50 μM)” value in the data set with HeLa MKYP cells [1] (50 μM) came out at 13.3%. Further, in the data set on HeLa MKYP cells [1] (listed as EP-0037882), the “Max cell death” value came to 13.32% and the “Cell death at 25 μM (no FO)” value was 3.79%. Further, in the data set with mitotoxicity (listed as EP-0037882), the “Mitotox safety margin” value is given as “++++ (ratio 30<)” and the “Ratio**” value was 42.16. Besides, the solubility in the data set “Solubility in 1× PBS” is listed as 1 µM (≈ 0.346 µg/mL).
